We go through one molecule from patent US8173797B2 (Cornell Research Foundation, Inc., priority 2004, dated 2012).

The data set is described as follows: solubility in aprotic NMR solvents. It is filed as physicochemical.

`CC1OC(OC2C(O)C(C)OC(OC3C(COS(=O)(=O)O)OC(n4cnc5c(=O)[nH]c(N)nc54)C3O)C2O)C(O)C(O)C1O` (stereo not shown) [Compound 2]: the solubility entry is given as “quite insoluble”.
